US8247211B2, “Glycopeptide antibiotics” (American Cyanamid Company, priority 2001, dated 2012)

Experiments:
Test in all cases: In vitro antibacterial evaluation: minimum inhibitory concentration (MIC), broth dilution method
Type in all cases: cell-based
Escherichia coli = test system: Escherichia coli
Description: (§1) The minimum inhibitory concentration (MIC), the lowest concentration of the antibiotic which inhibits growth of the test organism, is determined by the broth dilution method using Muller-Hinton II […] (Baltimore Biological Laboratories) following the recommendations of the National Committee for Clinical Laboratory Standards [Methods for dilution antimicrobial susceptibility tests for bacteria that grow aerobically, approved standard M7-A2, National Committee for Clinical Laboratory Standards, Villanova, Pa].
(§2) An inoculum level of 5×10^5 CFU/mL, and a range of antibiotic concentrations (64-0.06 μg/mL) is used. […] The test organisms include a spectrum of Gram-positive bacteria comprised of Staphylococcus sp., Streptococcus sp. and Enterococcus sp. These organisms include recent clinical isolates that are resistant to methicillin, penicillin and/or vancomycin.

Enterococcus sp. = test system: Enterococcus sp.
Description: as §1, §2

Streptococcus sp. = test system: Streptococcus sp.
Description: as §1, §2

Staphylococcus sp. = test system: Staphylococcus sp.
Description: as §1, §2

[1] = broth dilution, inoculum 5×10^5 CFU/mL, 18 hours at 35° C.
[2] = broth dilution, 5×10^5 CFU/mL, 18 hours at 35° C.

CC(c1ccccc1)C1NC(=O)CNC(=O)C(CO)NC(=O)C(CC2CNC(=N)N2C2OC(CO)C(O)C(O)C2O)NC(=O)C(CC2CNC(=N)N2)NC(=O)C(Cc2ccc(OC3OC(CO)C(OC4OC5COC(c6ccc(OCc7ccccc7)cc6)OC5C(O)C4O)C(O)C3O)cc2)NC1=O (stereo not drawn) [Example 191]
64 µg/mL: MIC Escherichia coli (ATCC 25922) (Escherichia coli; Escherichia coli (ATCC 25922), 18 hours at 35° C.) | MIC Escherichia coli (GC 4559) (Escherichia coli; Escherichia coli (GC 4559), 18 hours at 35° C.)
4 µg/mL: MIC Enterococcus avium (GC 4558) (Enterococcus sp.; Enterococcus avium (GC 4558), 18 hours at 35° C.) | MIC Enterococcus faecium (GC 4557) (Enterococcus sp.; Enterococcus faecium (GC 4557), 18 hours at 35° C.) | MIC Enterococcus avium (GC 4558) (Enterococcus sp.; [1]) | MIC Enterococcus faecium (GC 4557) (Enterococcus sp.; [1]) | MIC Staphylococcus aureus (ATCC 29213) (Staphylococcus sp.; strain ATCC 29213) | MIC Staphylococcus aureus (GC 4541) (Staphylococcus sp.; strain GC 4541) | MIC Staphylococcus aureus (GC 4542) (Staphylococcus sp.; strain GC 4542) | MIC Staphylococcus aureus-SMITH (GC 4543) (Staphylococcus sp.; strain GC 4543) | MIC Staphylococcus aureus (GC 4545) (Staphylococcus sp.; strain GC 4545) | MIC Staphylococcus haemolyticus (GC 4546) (Staphylococcus sp.; strain GC 4546) | MIC Coagulase Negative Staphylococcus (GC 4548) (Staphylococcus sp.; strain GC 4548) | MIC Coagulase Negative Staphylococcus (GC 4549) (Staphylococcus sp.; strain GC 4549) | MIC Coagulase Negative Staphylococcus (GC 4551) (Staphylococcus sp.; strain GC 4551) | MIC Coagulase Negative Staphylococcus (GC 6257) (Staphylococcus sp.; strain GC 6257)
2 µg/mL: MIC Streptococcus agalactiae (GC 4564) (Streptococcus sp.; Streptococcus agalactiae (GC 4564), 18 hours at 35° C.) | MIC Streptococcus pneumoniae (GC 4565) (Streptococcus sp.; Streptococcus pneumoniae (GC 4565), 18 hours at 35° C.) | MIC Streptococcus pyogenes (GC 4563) (Streptococcus sp.; Streptococcus pyogenes (GC 4563), 18 hours at 35° C.) | MIC Streptococcus agalactiae (GC 4564) (Streptococcus sp.; [1]) | MIC Streptococcus pneumoniae (GC 4565) (Streptococcus sp.; [1]) | MIC Streptococcus pyogenes (GC 4563) (Streptococcus sp.; [1])
16 µg/mL: MIC Enterococcus faecalis (ATCC 29212) (Enterococcus sp.; Enterococcus faecalis (ATCC 29212), 18 hours at 35° C.) | MIC Enterococcus faecalis (GC 4552) (Enterococcus sp.; Enterococcus faecalis (GC 4552), 18 hours at 35° C.) | MIC Enterococcus faecalis (GC 4554) (Enterococcus sp.; Enterococcus faecalis (GC 4554), 18 hours at 35° C.) | MIC Enterococcus faecalis (ATCC 29212) (Enterococcus sp.; [1]) | MIC Enterococcus faecalis (GC 4552) (Enterococcus sp.; [1]) | MIC Enterococcus faecalis (GC 4554) (Enterococcus sp.; [1])
1 µg/mL: MIC Streptococcus pneumoniae (ATCC 6301) (Streptococcus sp.; Streptococcus pneumoniae (ATCC 6301), 18 hours at 35° C.) | MIC Streptococcus pneumoniae (ATCC 6301) (Streptococcus sp.; [1])
8 µg/mL: MIC Escherichia coli (GC 4560) (Escherichia coli; Escherichia coli (GC 4560), 18 hours at 35° C.) | MIC Enterococcus faecalis (GC 2242) (Enterococcus sp.; Enterococcus faecalis (GC 2242), 18 hours at 35° C.) | MIC Enterococcus faecalis (GC 2691) (Enterococcus sp.; Enterococcus faecalis (GC 2691), 18 hours at 35° C.) | MIC Enterococcus faecalis (GC 3059) (Enterococcus sp.; Enterococcus faecalis (GC 3059), 18 hours at 35° C.) | MIC Enterococcus faecalis (GC 4553) (Enterococcus sp.; Enterococcus faecalis (GC 4553), 18 hours at 35° C.) | MIC Enterococcus faecalis (GC 6189) (Enterococcus sp.; Enterococcus faecalis (GC 6189), 18 hours at 35° C.) | MIC Enterococcus faecium (GC 2243) (Enterococcus sp.; Enterococcus faecium (GC 2243), 18 hours at 35° C.) | MIC Enterococcus faecium (GC 4556) (Enterococcus sp.; Enterococcus faecium (GC 4556), 18 hours at 35° C.) | MIC Enterococcus faecalis (GC 2242) (Enterococcus sp.; [1]) | MIC Enterococcus faecalis (GC 2691) (Enterococcus sp.; [1]) | MIC Enterococcus faecalis (GC 3059) (Enterococcus sp.; [1]) | MIC Enterococcus faecalis (GC 4553) (Enterococcus sp.; [1]) | MIC Enterococcus faecalis (GC 6189) (Enterococcus sp.; [1]) | MIC Enterococcus faecium (GC 2243) (Enterococcus sp.; [1]) | MIC Enterococcus faecium (GC 4556) (Enterococcus sp.; [1]) | MIC Staphylococcus aureus (GC 1131) (Staphylococcus sp.; strain GC 1131) | MIC Staphylococcus aureus (GC 3051) (Staphylococcus sp.; strain GC 3051) | MIC Staphylococcus aureus (GC 3053) (Staphylococcus sp.; strain GC 3053) | MIC Staphylococcus aureus (GC 4544) (Staphylococcus sp.; strain GC 4544) | MIC Coagulase Negative Staphylococcus (GC 4547) (Staphylococcus sp.; strain GC 4547)
0.25 µg/mL: MIC Streptococcus pneumoniae (GC 1894) (Streptococcus sp.; Streptococcus pneumoniae (GC 1894), 18 hours at 35° C.) | MIC Streptococcus pneumoniae (GC 1894) (Streptococcus sp.; [1])

CC(c1ccccc1)C1NC(=O)CNC(=O)C(CO)NC(=O)C(C(O)C2CNC(=N)N2C2OC(CO)C(O)C(O)C2O)NC(=O)C(C(O)C2CNC(=N)N2)NC(=O)C(Cc2ccc(OC3OC(CO)C(OC4OC5COC(c6ccc7c(c6)OCCO7)OC5C(O)C4O)C(O)C3O)cc2)NC1=O (stereo not drawn) [Example 149]
1 µg/mL: MIC Streptococcus agalactiae (GC 4564) (Streptococcus sp.; strain GC 4564) | MIC Coagulase Negative Staphylococcus (GC 4547) (Staphylococcus sp.; [2]) | MIC Coagulase Negative Staphylococcus (GC 4548) (Staphylococcus sp.; [2]) | MIC Coagulase Negative Staphylococcus (GC 4549) (Staphylococcus sp.; [2]) | MIC Coagulase Negative Staphylococcus (GC 4551) (Staphylococcus sp.; [2]) | MIC Coagulase Negative Staphylococcus (GC 6257) (Staphylococcus sp.; [2]) | MIC Staphylococcus haemolyticus (GC 4546) (Staphylococcus sp.; [2]) | MIC Staphylococcus haemolyticus (GC 4546) (Staphylococcus sp.; strain GC 4546, broth dilution, 18 hours at 35° C.) | MIC Coagulase Negative Staphylococcus (GC 4547) (Staphylococcus sp.; strain GC 4547, broth dilution, 18 hours at 35° C.) | MIC Coagulase Negative Staphylococcus (GC 4548) (Staphylococcus sp.; strain GC 4548, broth dilution, 18 hours at 35° C.) | MIC Coagulase Negative Staphylococcus (GC 4549) (Staphylococcus sp.; strain GC 4549, broth dilution, 18 hours at 35° C.) | MIC Coagulase Negative Staphylococcus (GC 4551) (Staphylococcus sp.; strain GC 4551, broth dilution, 18 hours at 35° C.) | MIC Coagulase Negative Staphylococcus (GC 6257) (Staphylococcus sp.; strain GC 6257, broth dilution, 18 hours at 35° C.)
4 µg/mL: MIC Staphylococcus aureus (GC 3053) (Staphylococcus sp.; [2]) | MIC Staphylococcus aureus (GC 3053) (Staphylococcus sp.; strain GC 3053, broth dilution, 18 hours at 35° C.)
64 µg/mL: MIC Escherichia coli (GC 4559) (Escherichia coli; strain GC 4559)
2 µg/mL: MIC Enterococcus faecium (GC 4557) (Enterococcus sp.; strain GC 4557) | MIC Streptococcus pneumoniae (GC 4565) (Streptococcus sp.; strain GC 4565) | MIC Staphylococcus aureus (ATCC 29213) (Staphylococcus sp.; [2]) | MIC Staphylococcus aureus (GC 1131) (Staphylococcus sp.; [2]) | MIC Staphylococcus aureus (GC 3051) (Staphylococcus sp.; [2]) | MIC Staphylococcus aureus (GC 4541) (Staphylococcus sp.; [2]) | MIC Staphylococcus aureus (GC 4542) (Staphylococcus sp.; [2]) | MIC Staphylococcus aureus (GC 4544) (Staphylococcus sp.; [2]) | MIC Staphylococcus aureus (GC 4545) (Staphylococcus sp.; [2]) | MIC Staphylococcus aureus-SMITH (GC 4543) (Staphylococcus sp.; [2]) | MIC Staphylococcus aureus (ATCC 29213) (Staphylococcus sp.; strain ATCC 29213, broth dilution, 18 hours at 35° C.) | MIC Staphylococcus aureus (GC 1131) (Staphylococcus sp.; strain GC 1131, broth dilution, 18 hours at 35° C.) | MIC Staphylococcus aureus (GC 3051) (Staphylococcus sp.; strain GC 3051, broth dilution, 18 hours at 35° C.) | MIC Staphylococcus aureus (GC 4541) (Staphylococcus sp.; strain GC 4541, broth dilution, 18 hours at 35° C.) | MIC Staphylococcus aureus (GC 4542) (Staphylococcus sp.; strain GC 4542, broth dilution, 18 hours at 35° C.) | MIC Staphylococcus aureus-SMITH (GC 4543) (Staphylococcus sp.; strain GC 4543, broth dilution, 18 hours at 35° C.) | MIC Staphylococcus aureus (GC 4544) (Staphylococcus sp.; strain GC 4544, broth dilution, 18 hours at 35° C.) | MIC Staphylococcus aureus (GC 4545) (Staphylococcus sp.; strain GC 4545, broth dilution, 18 hours at 35° C.)
>64 µg/mL: MIC Escherichia coli (ATCC 25922) (Escherichia coli; strain ATCC 25922)
<0.5 µg/mL: MIC Escherichi coli (GC 4560) (Escherichia coli; strain GC 4560) | MIC Streptococcus pneumoniae (ATCC 6301) (Streptococcus sp.; strain ATCC 6301) | MIC Streptococcus pneumoniae (GC 1894) (Streptococcus sp.; strain GC 1894) | MIC Streptococcus pyogenes (GC 4563) (Streptococcus sp.; strain GC 4563)
8 µg/mL: MIC Enterococcus faecalis (ATCC 29212) (Enterococcus sp.; strain ATCC 29212) | MIC Enterococcus faecalis (GC 2242) (Enterococcus sp.; strain GC 2242) | MIC Enterococcus faecium (GC 2243) (Enterococcus sp.; strain GC 2243) | MIC Enterococcus faecalis (GC 2691) (Enterococcus sp.; strain GC 2691) | MIC Enterococcus faecalis (GC 3059) (Enterococcus sp.; strain GC 3059) | MIC Enterococcus faecalis (GC 4552) (Enterococcus sp.; strain GC 4552) | MIC Enterococcus faecalis (GC 4553) (Enterococcus sp.; strain GC 4553) | MIC Enterococcus faecalis (GC 4554) (Enterococcus sp.; strain GC 4554) | MIC Enterococcus faecium (GC 4556) (Enterococcus sp.; strain GC 4556) | MIC Enterococcus avium (GC 4558) (Enterococcus sp.; strain GC 4558) | MIC Enterococcus faecalis (GC 6189) (Enterococcus sp.; strain GC 6189)
